Data on 11 molecules can be found in PubChem BioAssay (NCI).

Test systems include MDA-MB-435; SN12C renal; A549 NSCLC; OVCAR-3 ovarian; HCT-15 colon; T-47D breast; UO-31 renal; SK-OV-3 ovarian; SNB-75 CNS; NCI-H460 lung.
What all share (assay): NCI anticancer screen, dose series, 48 h

The structures appear in SMILES notation. Where “and” joins values, the source holds several entries; their conditions need not be identical. Identical values can stand only once.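 Values below derive from 48-hour exposures of cells grown in 96-well plates, with endpoints linearly interpolated between the two concentrations bracketing the appropriate inhibition level. Abbreviation: GI50, concentration required for 50% inhibition of growth. TGI: concentration producing complete growth inhibition.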

On to `Cc1ccc2c(-c3ccnc(Nc4cccc(C(F)(F)F)c4)n3)c(-c3ccccc3)nn2n1`, for which the GI50 was 6770 nM in the test on MDA-MB-435; 3820 nM with SN12C renal; 6.18 µM in the test on A549 NSCLC; 5730 nM with OVCAR-3 ovarian; 5340 nM in the test with HCT-15 colon; 6950 nM in the test on T-47D breast. Further, the GI50 in the test with UO-31 renal is 1160 nM; in the test with SK-OV-3 ovarian, 597 nM; in the test with SNB-75 CNS, 3870 nM; in the test with NCI-H460 lung, 6420 nM. For the same molecule, the TGI was greater than 25000 nM with MDA-MB-435; greater than 15.5 µM in the test with SN12C renal; greater than 25 µM in the test on A549 NSCLC; greater than 18800 nM with OVCAR-3 ovarian; greater than 19 µM with HCT-15 colon; greater than 23.7 µM with T-47D breast. Also, the TGI in the test with UO-31 renal was greater than 25 µM; in the test on SK-OV-3 ovarian, greater than 15.8 µM; in the test with SNB-75 CNS, greater than 25 µM; in the test on NCI-H460 lung, greater than 16.4 µM.
For the molecule `O=C(CCl)N1CCN(c2ccccn2)CC1`, the TGI in the test on A549 NSCLC is greater than 10 µM; in the test with HCT-15 colon, greater than 10 µM; with T-47D breast, 31.7 µM; in the test on UO-31 renal it was 36.3 µM; in the test with SK-OV-3 ovarian it was greater than 100 µM; in the test with SNB-75 CNS, greater than 10 µM. This molecule displayed a TGI with NCI-H460 lung of 41.2 µM.
As for `CN(C)C/C=C/C(=O)Nc1ccc(C(=O)Nc2cccc(Nc3ncc(Cl)c(-c4c[nH]c5ccccc45)n3)c2)cc1`, the GI50 with MDA-MB-435 was 35.2 nM; with SN12C renal, 24.9 nM; in the test on A549 NSCLC, 0.0963 µM; with OVCAR-3 ovarian it was less than 12.2 nM; in the test with HCT-15 colon it was 229 nM; in the test with T-47D breast it was 28.4 nM. The GI50 with UO-31 renal was 199 nM; in the test with SK-OV-3 ovarian, 120 nM; in the test on SNB-75 CNS, 31.6 nM; in the test with NCI-H460 lung it was 265 nM. Further, the TGI is 274 nM in the test with MDA-MB-435; greater than 100 µM with A549 NSCLC; 90.3 nM with OVCAR-3 ovarian; greater than 100 µM in the test on HCT-15 colon; greater than 100 µM in the test with T-47D breast; 0.666 µM with UO-31 renal. Besides, the TGI with SK-OV-3 ovarian is greater than 100 µM; in the test with SNB-75 CNS, 0.101 µM; with NCI-H460 lung it was 0.904 µM.
For `CCN1C[C@@H](C)n2c(c(O)c3c(=O)n(Cc4ccc(F)c(Cl)c4)nc(C(=O)NC)c32)C1=O`, the GI50 in the test with MDA-MB-435 was 3210 nM; with SN12C renal, 3080 nM; in the test on A549 NSCLC it was 3.14 µM; with HCT-15 colon, 2570 nM; in the test with T-47D breast it was 3570 nM; in the test on UO-31 renal it was 2430 nM. For the same molecule, the GI50 is 3300 nM with SK-OV-3 ovarian, 2280 nM in the test with SNB-75 CNS and 3150 nM in the test with NCI-H460 lung. Further, the TGI in the test with MDA-MB-435 was greater than 100000 nM; with SN12C renal, greater than 100 µM; in the test with A549 NSCLC it was greater than 100 µM; in the test on HCT-15 colon, 8.28 µM; with T-47D breast it was greater than 100 µM; in the test on UO-31 renal, greater than 100 µM. Also, the values for the TGI in the test on SK-OV-3 ovarian, in the test with SNB-75 CNS and with NCI-H460 lung were 9.64 µM, 7.12 µM and 10.7 µM, respectively.
For `CN(C)Cc1ccc(O)c(CN(C)C)n1`, the TGI in the test on MDA-MB-435 was greater than 100000 nM; in the test with SN12C renal it was greater than 100 µM; with A549 NSCLC, greater than 100 µM; in the test on OVCAR-3 ovarian, greater than 100000 nM; in the test on HCT-15 colon, greater than 100 µM; with T-47D breast, greater than 100 µM. Moreover, the TGI in the test with UO-31 renal, in the test with SK-OV-3 ovarian, with SNB-75 CNS and in the test on NCI-H460 lung was greater than 100 µM in each case.
As to `O=C1NC(c2cccc3ccccc23)Nc2ccc(Cl)cc21` (stereo not drawn), the TGI is 0.257 nM in the test with MDA-MB-435; 17.9 µM in the test with SN12C renal; greater than 100 µM in the test on A549 NSCLC; 15.1 nM and 30.3 nM in the test with OVCAR-3 ovarian; 0.269 µM in the test with HCT-15 colon; 68.5 µM in the test on T-47D breast. For the same molecule, the TGI worked out at 0.00836 µM with UO-31 renal, 0.000902 µM with SNB-75 CNS and 0.279 µM with NCI-H460 lung.
Take `CCN1CCCCCCCCCC(=N/O)/C(=N\O)C1`: the TGI was greater than 100000 nM in the test with MDA-MB-435; greater than 100 µM in the test on SN12C renal; greater than 100 µM in the test with A549 NSCLC; greater than 100000 nM in the test with OVCAR-3 ovarian; greater than 100 µM in the test on HCT-15 colon; greater than 100 µM in the test with T-47D breast. Further, the TGI with UO-31 renal, in the test with SNB-75 CNS and in the test on NCI-H460 lung was greater than 100 µM throughout.
Turning to `Cc1cc2c3c(nc4ccccc42)C(=O)c2cccnc2-c3n1`, the GI50 in the test with MDA-MB-435 is 162 nM; in the test with SN12C renal it was 146 nM; in the test on A549 NSCLC, 0.372 µM; in the test on HCT-15 colon it was 15 nM; in the test on T-47D breast it was 749 nM; in the test on SK-OV-3 ovarian it was 250 nM. In addition, the values for the GI50 with SNB-75 CNS and in the test on NCI-H460 lung were 833 nM and 162 nM, respectively. The TGI in the test on MDA-MB-435 amounted to 332 nM; in the test on SN12C renal it was 1.82 µM; with A549 NSCLC, 1.84 µM; in the test on OVCAR-3 ovarian, 26.3 nM; with HCT-15 colon, 0.162 µM; in the test on T-47D breast, 4.13 µM. For the same molecule, the TGI with SK-OV-3 ovarian was determined as 1.07 µM; in the test with SNB-75 CNS, 3.09 µM; in the test with NCI-H460 lung it was 1.06 µM.
For `O=C(CCl)N1CCN(c2ccccc2)CC1`, the TGI in the test on A549 NSCLC is 43.3 µM; in the test with HCT-15 colon, 39.2 µM; in the test with T-47D breast, 45.8 µM; in the test on UO-31 renal, 32 µM; with SK-OV-3 ovarian it was greater than 100 µM; in the test with SNB-75 CNS it was 32.5 µM. In addition, the TGI with NCI-H460 lung was found to be 34.9 µM.
Take `CCN(CC)CCN1C(=O)c2c(c3c4cccc(Cl)c4n(C4OC(CO)C(OC)C(O)C4O)c3c3[nH]c4c(Cl)cccc4c23)C1=O` (stereo not drawn): the TGI with MDA-MB-435 amounted to 217 nM; in the test with T-47D breast, 2.26 µM. The GI50 with A549 NSCLC is less than 0.0001 µM; with NCI-H460 lung it was less than 0.1 nM.
On to `CCCCNC(=O)CC1=C(C)/C(=C/c2[nH]c(-c3ccc[nH]3)cc2OC)N=C1C`, for which the GI50 with MDA-MB-435 was 2870 nM; in the test on A549 NSCLC, 3.6 µM; with OVCAR-3 ovarian it was 2580 nM; in the test with HCT-15 colon, 1880 nM; in the test with T-47D breast it was 2410 nM; with UO-31 renal, 1900 nM. Besides, the GI50 in the test on SK-OV-3 ovarian was 2760 nM; in the test with SNB-75 CNS, 1850 nM; in the test on NCI-H460 lung it was 2710 nM. In addition, the TGI was found to be 9710 nM in the test with MDA-MB-435; 11.2 µM with A549 NSCLC; 9770 nM in the test on OVCAR-3 ovarian; 4.12 µM in the test on HCT-15 colon; 7.39 µM in the test on T-47D breast; 4 µM in the test on UO-31 renal. The values for the TGI with SK-OV-3 ovarian, with SNB-75 CNS and in the test on NCI-H460 lung were 8.96 µM, 7.36 µM and 11.7 µM, respectively.
